What was measured:
[1] = Acute toxicity in the mouse; details: in vivo
Description: The acute toxicity of YS 201 given by intraveous route, similar in the males and in the females in the rat as well as in the mouse, is as follows:
The acute toxicity of YS 201 given by oral route, similar in the males and in the females in the rat as well as in the mouse, is as follows: […]

[2] = system: SHR-SP; experiment: Effect on blood pressure in 6 month old SHR-SP (intraduodenal); type: in vivo, rat; parameters: DBP (dyastolic blood pressure) / MBP (mean blood pressure) / SBP (systolic blood pressure) / S-D (difference between systolic and diastolic blood pressure): unit not given here; details: 15 mg/kg intraduodenal
Description: Comparative effect of YS 201 on 3 month old rats and 6 month old SHR-SP

[3] = system: post-oligoemic rats; experiment: Transient cerebral oligoemia in the rat, cerebral water, K+ and Ca++ content; type: in vivo
Procedure: Transient cerebral oligoemia in the rat
The method described by Borzeix in Circulation et Metabolisme du Cerveau 1, 63-79, John Libbey Eurotext Publ. […] The animals were treated by the oral route with the tested drugs twice a day, starting one hour after the ligation and for 3 days, in scalar doses.
The last dose, at the 71th hour after the occlusion, preceeded by one hour the sacrifice of the animal, whose brain was subjected to the determination of the H2 O, K^+ and Ca^++ content.

## CCOC(=O)C1=C(C)NC(C)=C(C(=O)OCCN2CCCCC2)C1c1cccc([N+](=O)[O-])c1 (stereo not drawn) [YS 201, ethyl-(β-piperidinoethyl)-2,6-dimethyl-4-(3-nitrophenyl)-1,4-dihydropyridine-3,5-dicarboxylate]
[1]; iv
  LD50: 12.3 mg/kg
[1]; po
  LD50: 283 mg/kg
[2]
  duration of blood pressure effect: 4 h
[2]; 0 min (baseline)
  DBP (dyastolic blood pressure): 17.5
  HR (heart rate): 360 beats/min
  MBP (mean blood pressure): 20.0
  S-D (difference between systolic and diastolic blood pressure): 7.5
  SBP (systolic blood pressure): 25.0
[2]; +1 min
  DBP (dyastolic blood pressure): 17.0
  HR (heart rate): 360 beats/min
  MBP (mean blood pressure): 19.3
  S-D (difference between systolic and diastolic blood pressure): 7.0
  SBP (systolic blood pressure): 24.0
[2]; +2 min
  DBP (dyastolic blood pressure): 15.0
  HR (heart rate): 360 beats/min
  MBP (mean blood pressure): 17.5
  S-D (difference between systolic and diastolic blood pressure): 7.5
  SBP (systolic blood pressure): 22.5
[2]; +5 min
  DBP (dyastolic blood pressure): 16.0
  HR (heart rate): 360 beats/min
  MBP (mean blood pressure): 18.7
  S-D (difference between systolic and diastolic blood pressure): 8.0
  SBP (systolic blood pressure): 24.0
[2]; +10 min
  DBP (dyastolic blood pressure): 13.5
  HR (heart rate): 360 beats/min
  MBP (mean blood pressure): 16.2
  S-D (difference between systolic and diastolic blood pressure): 8.0
  SBP (systolic blood pressure): 21.5
[2]; +15 min
  DBP (dyastolic blood pressure): 13.0
  HR (heart rate): 360 beats/min
  MBP (mean blood pressure): 15.7
  S-D (difference between systolic and diastolic blood pressure): 8.0
  SBP (systolic blood pressure): 21.0
[2]; +30 min
  DBP (dyastolic blood pressure): 11.0
  HR (heart rate): 340 beats/min
  MBP (mean blood pressure): 13.7
  S-D (difference between systolic and diastolic blood pressure): 8.0
  SBP (systolic blood pressure): 19.0
[2]; +60 min
  DBP (dyastolic blood pressure): 10.0
  HR (heart rate): 300 beats/min
  MBP (mean blood pressure): 12.0
  S-D (difference between systolic and diastolic blood pressure): 7.0
  SBP (systolic blood pressure): 17.0
[2]; +120 min
  DBP (dyastolic blood pressure): 11.5
  HR (heart rate): 360 beats/min
  MBP (mean blood pressure): 13.5
  S-D (difference between systolic and diastolic blood pressure): 6.0
  SBP (systolic blood pressure): 17.5
[2]; +180 min
  DBP (dyastolic blood pressure): 8.0
  HR (heart rate): 400 beats/min
  MBP (mean blood pressure): 9.8
  S-D (difference between systolic and diastolic blood pressure): 5.5
  SBP (systolic blood pressure): 13.5
[2]; +240 min
  DBP (dyastolic blood pressure): 6.0
  HR (heart rate): 420 beats/min
  MBP (mean blood pressure): 7.5
  S-D (difference between systolic and diastolic blood pressure): 4.5
  SBP (systolic blood pressure): 10.5
[3]; 0.25 mg/kg p.o.
  Cerebral content of H2O: 79.2 ± 0.57%
[3]; 0.5 mg/kg p.o.
  Cerebral content of Ca++: 11.7 ± 3.00 mmol · kg^-1 dry weig
  Cerebral content of H2O: 78.3 ± 0.39%
[3]; 1 mg/kg p.o.
  Cerebral content of Ca++: 11.7 ± 5.53 mmol · kg^-1 dry weig
  Cerebral content of H2O: 77.8 ± 0.47%
[3]; 3 mg/kg p.o.
  Cerebral content of Ca++: 12.6 ± 3.89 mmol · kg^-1 dry weig
  Cerebral content of H2O: 78.8 ± 0.44%

Source: patent US4826856A, “Calcium antagonistic dihydropyridine derivative” (Yason s.r.l., priority 1985, dated 1989)
